Measured values from US6703362B1, “Random peptides that bind to gastro-intestinal tract (GIT) transport receptors and related methods” (Cytogen Corporation, priority 1997, dated 2004).
Values belong to the compound of their own block, whether it stands above or below them. Square brackets hold non-standard residues; d marks the D form. Peptide text beside a SMILES is read from it. * marks the point of attachment. Dansyl = CN(C)c1cccc2c(S(=O)(=O)*)cccc12

Legend:
[1] = test system: fixed Caco-2 cells; experiment: Inhibition of GST-peptide fusion binding to fixed Caco-2 cells by synthetic peptides; settings: peptide from 100 μg/ml serially diluted; GST fusion 10 μg
Description: Caco-2 cells were fixed, treated with phenylhydrazine and blocked as described above. […] GST-PAX2 binding was inhibited by ZElan032, ZElan033, and ZElan035.

[2] = test system: P100 membrane fractions derived from Caco-2 cells; experiment: Dansylated peptide ELISA: relative binding of PAX2 and HAX42 peptides to P100 (ratio to ZElan021); settings: ratio to ZElan021 = 1.00
How it was run: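 P100 membrane fraction from Caco-2 cells (normally 100 μg/ml) coated in carbonate buffer pH9.6, blocked with 2% Marvel/PBS, then incubated with dansylated peptides. Detection via anti-mouse HRP conjugate and TMB, OD read at 650nm; binding expressed relative to ZElan021.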

[3] = test system: P100 fractions harvested from Caco-2 cells; experiment: Binding of dansylated peptides to P100 fractions and peptide/particle correlation
Procedure: Caco-2 cell membrane (P100) and cytosolic (S100) fractions were prepared using a modification of the method described in Kinsella, B. T., O'Mahony, D. J. and G. A. FitzGerald, 1994, J. Biol. Chem. 269(47): 29914-29919. Confluent Caco-2 cell monolayers (grown in 75 cm^2 flasks for up to 1 week at 37° C. and 5% CO2) were washed twice in Dulbecco's PBS (DPBS) and the cells were harvested by centrifugation at 1000 rpm after treatment with 10 mM EDTA-DPBS. The cells were washed 3 times in DPBS and the final cell pellet was resuspended in 3 volumes of ice cold HED buffer (20 mM HEPES (pH 7.67), 1 mM EGTA, 0.5 mM dithiothreitol, 1 mM phenylmethylsulphonyl fluoride (PMSF)). The cells were allowed to swell for 5 min on ice prior to homogenization for 30 sec. The homogenates were centrifuged at 40,000 rpm for 45 min at 4° C. The supernatant (S100) was removed and the pellet (P100) was resuspended in HEDG buffer (20 mM HEPES (pH 7.67), 1 mM EGTA, 0.5 mM dithiothreitol, 100 mM NaCl, 10% glycerol, 1 mM PMSF). Protein concentrations were determined using the Bradford assay (Bradford, M. M., 1976, Anal. Biochem. 72: 248-254).
Binding of peptide and/or peptide-coated PLGA particles to membrane (P100) and cytosolic (S100) fractions was assessed by detection of the dansyl moiety incorporated in the peptide. Costar ninety six well ELISA plates were coated with S100 and P100 fractions (100 μg/ml in 0.05 M NaHCO3) overnight at 4° C. The plates were blocked with 0.5% bovine serum albumin in DPBS for 1 h at room temperature and washed 3 times in 1% BSA-DPBS. […] After washing 3 times in 1% BSA-DPBS 100 μl of TMB substrate (3,3′,5′,5-tetramethylbenzidine; Microwell Peroxidase Substrate System (Kirkegaard and Perry Laboratories 50-76-00)) was added and the optical density was measured at 650 nm at various time intervals.
Binding of dansylated peptides to P100 fractions was assessed to determine if peptide binding was predictive of peptide-coated particle binding.

[4] = test system: fixed Caco-2 cells; experiment: Effect of thrombin cleavage on binding of GST-peptide fusions to fixed Caco-2 cells; settings: thrombin 18 h at room temperature
Procedure: Binding of intact and thrombin-cleaved GST-peptide fusions to fixed Caco-2 cells was compared.
Thirty micrograms of each GST-peptide was treated with bovine thrombin (1 μ/ml; 0.4 NIH units; Sigma CN.T9681) for 18 h at room temperature in 2OmM Tris-HCl pH8.0, 150 mM NaCl, 2.5 mM CaCl2. Controls were similarly treated without addition of thrombin. Ten micrograms of each GST-peptide fusion was removed for PAGE analysis, and 10 μg of fusions were added in duplicate to the fixed Caco-2 cells before 5-fold serial dilutions (1% BPT diluent). The fusions were allowed to bind for 1 h at room temperature. Following 6 washes with 1% BPT, binding was assayed by ELISA.

[5] = test system: fixed Caco-2 or C2BBe1 cells; experiment: ELISA of GST fusion proteins on fixed Caco-2 or C2BBe1 cells; type: binding
Procedure: Fixed Caco-2, C2BBe1, and A431 cell plates were prepared by growing cells on tissue culture treated microtiter plates. When cells were confluent, plates were fixed with 10% formaldehyde, washed twice with PBS and stored with 0.5%BSA-PBS at −20° C. […] The standard ELISA procedure was followed at this point.
The standard ELISA procedure was modified as follows. GST proteins were diluted to an appropriate concentration in PBS containing lkBSA and 0.05% Tween20 (1%BPT), titered and incubated one hour at room temperature. Following five washes an anti-GST monoclonal antibody was added (Sigma, St. Louis Clone GST-2 diluted 1:10,000 in 1%BPT) and incubated one hour. After five more washes goat anti-mouse IgG2b-HRP was added (Southern Biotechnology Associates Inc., Birmingham, Ala., diluted 1:4000 in 1%BPT) and incubated one hour. After five washes plates were developed with TMB peroxidase substrate (Kirkegard and Perry, Gaithersburg, Md.). All data is presented with background binding subtracted.

[6] = test system: polarized Caco-2 monolayers; experiment: Transport of GST-peptide fusions across polarized Caco-2 monolayers (anti-GST ELISA); type: in vitro ADME
Procedure: Transport and uptake of GST-peptide fusions and deletion derivatives across cultured polarized Caco-2 monolayers over 4 hours in HBSS buffer was examined using an anti-GST ELISA assay. In another experiment, transport and uptake of GST-peptide fusions and deletion derivatives across cultured polarized Caco-2 monolayers over 24 hours in serum-free medium (SFM) was examined using an anti-GST ELISA assay.
a) 4 h HBSS study: […] (TER) across the Caco-2 monolayers grown on snapwells (passage 33; 23 days old) was measured to confirm monolayer integrity before beginning the experiment. The medium was removed and the cells were washed once with bHBSS. bHBSS containing 100 μM chloroquine was added and the cells were incubated for 2 h at 37° C. The bHBSS+chloroquine was replaced with 0.5 ml bHBSS containing GST-peptide fusions (10 μg/ml) and the cells were incubated as before. […] At 4h, TER was measured, the apical medium was sampled and the apical reservoir was washed 6 times with HBSS. […]
b) 24 h SFM study: Transepithelial electrical flux (TER) across the Caco-2 monolayers grown on snapwells (passage 33; 23 days old) was measured to confirm monolayer integrity before beginning the experiment. […] After 24 hours, TER readings were taken, and samples from the basolateral and apical reservoirs were removed. […]

[7] = Peptide stability in simulated intestinal fluid (SIF); type: in vitro ADME
Procedure: The relative stability for ZElanO3l, ZElanO53 and ZElan054 was determined in simulated intestinal fluid (SIF) SIF was made by dissolving 100 mg of pancreatin (Sigma cat#P-1625, lot# 122H0812)in 8.4 ml of phosphate stock solution, adjusting the pH to 7.5 with 0.2N NaOH and adjusting the volume to 10 ml with water.
Peptide (3.25 mg) was dissolved in 3.25 ml of 10,000 fold diluted SIF solution at 37° C. Aliquots (0.7 ml) of the digestion solution were then withdrawn at <1 min, 1 h, 3 h, and 21 h or 24 h. The samples were quickly passed through a syringe filter (Millipore Millex-GV 0.22 μm, part# SLGV025LS, lot# H2BM95250) and 300 μL of the filtered solution was immediately injected onto a Hewlett-Packard HPLC system equipped with a C-8 column (Applied Biosystems column and guard column: column-p/n 0711-0023 Spheri-5 ODS 5 μm, 220×4.6 mm). The products were eluted at 1.5 ml/min using an acetonitrile-water gradient. The major fluorescent peaks were collected, lyopholized and identified by MS analysis.

[8] = test system: ZElan024 (P31), ZElan018 (PAX2), ZElan021 (HAX42); experiment: Crossreactive binding of GST fusions to dansylated peptides; settings: 0.5 μg/ml concentration used in competition assays

Compound: H-K(Dansyl)SDHALGTNLRSDNAKEPGDYNCCGNGNSTGRKVFNRRRPSAIPT-NH2 (cysteines drawn unpaired) [ZElan021]
inhibition of GST-HAX42 binding [1]: not inhibited
Binding value at 20 μg/ml ([2]; HAX42 peptides): 1.00
Binding value at 25 μg/ml ([2]; HAX42 peptides, first 25 μg/ml column): 1.00
Binding value at 50 μg/ml ([2]; HAX42 peptides, first 50 μg/ml column): 1.00
Binding value at 25 μg/ml ([2]; HAX42 peptides, second 25 μg/ml column): 1.00
Binding value at 50 μg/ml ([2]; HAX42 peptides, second 50 μg/ml column): 1.00
Binding value at 25 μg/ml ([2]; HAX42 peptides, third 25 μg/ml column): 1.00
binding of dansylated peptide to P100 compared to scrambled PAX2 control ([3]; initial assay): strong binding

binding to fixed Caco-2 or C2BBe1 cells relative to GST control [5]: bound fixed Caco-2 or C2BBe1 cells
Compound: gst-RYKHDIGCDAGVDKKSSSVRGGCGAHSSPPRAGRGPRGTMVSRL [GST-DCX8]
effect of thrombin cleavage on detection of binding [4]: significantly reduced detection of binding
flux relative to GST alone [6]: higher flux than GST alone

Rel. Stab. ([7]; rank, 1 = most stable to SIF): 1
remaining at 1 min, 1 mg/ml ([7]; simulated intestinal fluid (pancreatin), pH 7.5, 10,000 fold diluted SIF, 37° C., read-out: Percent Remaining at: 1 m): 100%
remaining at 1 h, 1 mg/ml ([7]; simulated intestinal fluid (pancreatin), pH 7.5, 10,000 fold diluted SIF, 37° C., read-out: Percent Remaining at: 1 h): 98.3%
remaining at 3 h, 1 mg/ml ([7]; simulated intestinal fluid (pancreatin), pH 7.5, 10,000 fold diluted SIF, 37° C., read-out: Percent Remaining at: 3 h): 98.1%
remaining at 24 h, 1 mg/ml ([7]; simulated intestinal fluid (pancreatin), pH 7.5, 10,000 fold diluted SIF, 37° C., read-out: Percent Remaining at: 24 h): 94%
Compound: C[C@@H](O)[C@H](NC(=O)[C@@H](N)CCCCNS(=O)(=O)c1cccc2c(N(C)C)cccc12)C(=O)N[C@H](CCCNC(=N)N)C(=O)N[C@@H](CCCCN)C(=O)N[C@@H](CO)C(=O)N[C@@H](CO)C(=O)N[C@H](CCCNC(=N)N)C(=O)N[C@@H](CO)C(=O)N[C@@H](CC(N)=O)C(=O)N1CCC[C@H]1C(=O)N[C@H](CCCNC(=N)N)C(=O)NCC(=O)N[C@H](CCCNC(=N)N)C(=O)N[C@H](CCCNC(=N)N)C(=O)N[C@@H](Cc1c[nH]cn1)C(=O)N1CCC[C@H]1C(=O)NCC(N)=O [ZElan053, H2N—K(dns)TrKSSrSNPrGrrHPG—CONH2] (H-K(Dansyl)T[dR]KSS[dR]SNP[dR]G[dR][dR]HPG-NH2)
inhibition of GST-P31 binding [1]: inhibited
binding of dansylated peptide to P100 compared to scrambled PAX2 control ([3]; initial assay): binding at the highest dilution only

Compound: H-K(Dansyl)STPPSREAYSRPYSVDSDSDTNAKHSSHNRRLRTRSRPNG-NH2 [ZElan018]
inhibition of GST-HAX42 binding [1]: inhibited
Binding value at 20 μg/ml ([2]; PAX2 peptides, first 20 μg/ml column): −0.33
Binding value at 50 μg/ml ([2]; PAX2 peptides, first 50 μg/ml column): 0.95
Binding value at 20 μg/ml ([2]; PAX2 peptides, second 20 μg/ml column): 1.07
Binding value at 50 μg/ml ([2]; PAX2 peptides, second 50 μg/ml column): 1.01
binding of dansylated peptide to P100 compared to scrambled PAX2 control ([3]; repeat assay): indistinguishable from the scrambled PAX2 control

Compound: gst-SARDSGPAEDGSRAVRLNGVENANTRKSSRSNPRGRRHP [GST-P31]
binding to fixed Caco-2 or C2BBe1 cells relative to GST control [5]: bound fixed Caco-2 or C2BBe1 cells
crossreactive binding to ZElan024 (P31) and ZElan018 (PAX2) [8]: no crossreactive binding
flux relative to GST alone [6]: higher flux than GST alone
